Source: patent US7615361B2, “Toxicity screening methods” (Ceetox, Inc., priority 2006, dated 2009)

Key:
SK-MEL28 cells = assay: Intracellular total glutathione (GSH)
Method: (§1) Intracellular Glutathione (GSH) Levels: Intracellular glutathione levels were determined essentially as described by Griffith (1980) with modifications. At the end of the exposure period, the medium was removed from the cells and metaphosphoric acid (MPA) was added to each well. Plates were then shaken for 5 min at room temperature and stored at −20° C. until needed.
(§2) The sample plates were thawed just prior to analysis and centrifuged at >2000×g for at least 2 min. Sample aliquots were removed and transferred to a clean 96-well plate along with appropriate standard curve controls. Sample pH was neutralized just prior to analysis and each well received an aliquot of sodium phosphate reaction buffer containing EDTA, DTNB, NADPH, and glutathione reductase. The plates were mixed for 15-30 min at room temperature and glutathione content was determined calorimetrically with a Packard Fusion or equivalent reader at 415 nm.
(§3) Intracellular Glutathione (GSH) Levels: The assay is based on the concept that all GSH is oxidized to GSSG by DTNB reagent. Two molecules of GSH are required to make one molecule of GSSG. Total GSH was determined by reducing GSSG to 2GSH with glutathione reductase. A standard curve was prepared with oxidized glutathione (GSSG) over a range of concentrations. These concentrations are then converted to glutathione equivalents (GSX) essentially by multiplying the GSSG standard concentrations by 2. The amount of GSX expressed as pmoles/well was determined using the standard curve and regression analysis.
(§4) The test compound consisted of two parts mixed in a constant ratio of 5:1. The final test mixture consisted of Test mix 1 and Test mix 2, which were received as frozen solutions. The test mixture was tested in a ratio of 5:1 COMP A in five different cell types which included the following: SK-MEL28, human hepatocytes, HUVEC, C32, and NHEM cells. Cells were seeded into 96-well plates and cultured in medium containing 10% bovine serum. Following an equilibration period of 48 hr, the cells were treated with the test compound mix at concentrations of COMP A (μg/mL)=(250:50), (125:25), (25:12.5), (12.5:2.5), (2.5:1.25), (1.25:0.25), and (0.25:0.05) for 24 hr (overnight) at 37° C. in 5% CO2. […] Following an equilibration period of 4 hr, the cells were treated with the test compound mix at concentrations of COMP A (μg/mL)=(250:50), (125:25), (25:12.5), (12.5:2.5), (2.5:1.25), (1.25:0.25), and (0.25:0.05) for 24 hr (overnight) at 37° C. in 5% CO2.
(§5) Experimental Protocol: The test compounds were shipped on dry ice for testing. The compounds were stored frozen at −80° C. until needed. Dosing solutions were prepared in complete culture medium. SK-MEL28, human hepatocytes, HUVEC, C32, and NHEM cells were used as the test systems. Cells were seeded into 96-well plates and allowed to equilibrate for approximately 48 hr. Following the equilibration period the cells were exposed to the test compound mix at concentrations of COMP A (μg/mL)=(250:50), (125:25), (25:12.5), (12.5:2.5), (2.5:1.25), (1.25:0.25), and (0.25:0.05). […] Following the exposure period, the cells or their supernatant (culture medium) were analyzed for changes in cell proliferation, membrane leakage, mitochondrial function, oxidative stress, and apoptosis. The resultant exposure concentration response curves were graphed and analyzed for determining the concentration that produced a half maximal response or TC50.

[1] = Intracellular total glutathione (GSH); settings: human
Method: as §1, §2, §3, §4, §5

MTT reduction = settings: human; for CC50 at 24 h: MTT TC50, SK-MEL28, 24 HR
Method: Tetrazolium Dye Reduction: 3-[4,5-dimethylthiazol-2-yl]
The test compound consisted of two parts mixed in a constant ratio of 5:1. The final test mixture consisted of Test mix 1 and Test mix 2, which were received as frozen solutions. The test mixture was tested in a ratio of 5:1 COMP A in five different cell types which included the following: SK-MEL28, human hepatocytes, HUVEC, C32, and NHEM cells. Cells were seeded into 96-well plates and cultured in medium containing 10% bovine serum. […]
Experimental Protocol: The test compounds were shipped on dry ice for testing. The compounds were stored frozen at −80° C. until needed. Dosing solutions were prepared in complete culture medium. SK-MEL28, human hepatocytes, HUVEC, C32, and NHEM cells were used as the test systems. Cells were seeded into 96-well plates and allowed to equilibrate for approximately 48 hr. Following the equilibration period the cells were exposed to the test compound mix at concentrations of COMP A (μg/mL)=(250:50), (125:25), (25:12.5), (12.5:2.5), (2.5:1.25), (1.25:0.25), and (0.25:0.05). Solubility was determined by Nephalometry techniques immediately after dosing and prior to harvesting the cells at 24 hr. Following the exposure period, the cells or their supernatant (culture medium) were analyzed for changes in cell proliferation, membrane leakage, mitochondrial function, oxidative stress, and apoptosis. The resultant exposure concentration response curves were graphed and analyzed for determining the concentration that produced a half maximal response or TC50.

[2] = SK-MEL28, 24 HR, COMP A (LOW) / controls #2
[3] = SK-MEL28, 72 HR, COMP A (LOW) / controls #2

## CC[C@@]1(O)C(=O)OCc2c1cc1n(c2=O)Cc2cc3ccccc3nc2-1 [CAMPTOTHECIN, Camptothecin]
SK-MEL28 cells; SK-MEL28, 24 HR
  Percent Change in Total GSH: −46.0%
SK-MEL28 cells; [2]
  Percent Change in Total GSH: −57.9%
SK-MEL28 cells; [3]
  Percent Change in Total GSH: −88.8%
[1]; SK-MEL28 cells
  CC50 at 24 h: 10000 nM
  CC50 at 72 h: 100 nM
MTT reduction; SK-MEL28 cells
  CC50 at 24 h: 241000 nM
MTT reduction; SK-MEL28 cells, run #2
  CC50 at 24 h: 249000 nM
MTT reduction; SK-MEL28 cells, MTT TC50, SK-MEL28, 72 HR, run #2
  CC50 at 72 h: 100 nM

## C=C(C)[C@H]1Cc2c(ccc3c2O[C@@H]2COc4cc(OC)c(OC)cc4[C@@H]2C3=O)O1 [ROTENONE, Rotenone]
SK-MEL28 cells; SK-MEL28, 24 HR
  Percent Change in Total GSH: 52.8%
SK-MEL28 cells; [2]
  Percent Change in Total GSH: 49.9%
SK-MEL28 cells; [3]
  Percent Change in Total GSH: 85.1%
[1]
  CC50 at 72 h: 100 nM
MTT reduction
  CC50 at 72 h: 200 nM
